Read-outs that look alike come from different tables or passages of the source.
Legend:
[1] = test system: mice with isoproterenol (ISO)-induced ischemic heart disease; assay: ISO-induced ischemic heart disease mouse model: Ca2+ in myocardial tissue; format: in vivo
Experimental: (§1) Male C57BL/6 mice were allowed to acclimate to the environment and then randomly divided into 9 groups, namely the blank control group, the ISO model group, the ISO+diltiazem 20 mg/kg positive control drug group, the ISO+Formula I (0.1, 0.5, 2 mg/kg) groups, and the ISO+Formula II (0.1, 0.5, 2 mg/kg) groups. Mice in the drug administration groups were intragastrically administered the corresponding doses of Formula I and Formula II compounds once a day at the same time. Mice in the positive drug diltiazem group were intragastrically administered the corresponding dose of diltiazem once a day. Mice in the blank control group and the model group were given the same amount of solvent (0.5% CMC-Na). The administration volume was 10 mL/kg, and the administration was continuous for 11 days.
(§2) From the 4th to the 10th day of drug administration, ISO modeling was carried out. The blank control group was subcutaneously injected with normal saline, and mice in the other groups were subcutaneously injected with ISO at a dose of 40 mg/kg (modeling was performed 2 hours after drug administration), for a total of 7 times.
Calcium ion detection in myocardial tissue: After the experiment ended, some myocardial tissue was taken to prepare a 10% myocardial tissue homogenate with ultrapure water. The homogenate was centrifuged at 1200 rpm for 20 minutes at 4° C. to separate the supernatant of the myocardial tissue homogenate. The calcium ion content was determined according to the kit instructions; protein quantification was performed using the BCA protein assay method.

H9C2 cardiomyocytes [2] = assay: cells; settings: Rattus norvegicus, H9c2, read-out: Cell viability
Experimental: H9C2 cardiomyocytes in the logarithmic growth phase were seeded into 96-well plates at a density of 7×10^4 cells/mL, with 100 μL per well.
After 24 hours of culture, the culture medium of the H/R and drug-treated groups was replaced with serum-free glucose-free DMEM medium (100 μL per well). The cells were then placed in an anaerobic incubator and cultured under hypoxic conditions in a 37° C. cell culture incubator. After 6 hours, the supernatant of the H/R and drug-treated groups was removed and replaced with high-glucose medium containing 10% fetal bovine serum (100 μL per well). Each drug-treated group received the corresponding concentration of the drug, while the H/R model group and the blank control group received an equal volume of DMSO.
After removing the supernatant, 100 μL of CCK solution (the volume of CCK accounted for 10% of the DMEM culture medium volume) was added to each well. The cells were cultured in the cell culture incubator for 1 hour, and the absorbance was measured at 450 nm using a microplate reader to calculate the cell viability. Cell viability was calculated as follows: Cell viability (%)=(Experimental well-Blank well)/(Control well-Blank well)×100%.

Rat H9C2 cardiomyocytes [3] = settings: 50 μM Ang II 24 h, MTT 570 nm
Experimental: Rat H9C2 cardiomyocytes in the logarithmic growth phase were seeded at a density of 7×10^4 cells/mL into 96-well plates, with 100 μL per well. […] After 24 hours of culture, the drug treatment groups were respectively added with 50 μM Ang II and the corresponding concentration of the drug. The Ang II model group was added with 50 μM Ang II and an equal volume of DMSO, and the blank control group was added with an equal volume of DMSO. Then, the cells were cultured for another 24 hours. After removing the supernatant, 100 μL of MTT solution (0.5 mg/mL) was added to each well, and the plates were placed in an incubator for 4 hours. After removing the supernatant again, 150 μL of DMSO was added to each well, and the mixture was shaken and mixed evenly for 10 minutes. The absorbance was measured at 570 nm using a microplate reader to calculate the cell viability.
Cell viability (%)=[(As−Ab)/(Ac−Ab)]×100% • As: Experimental well (culture medium containing cells, MTT, Ang II); • Ac: Control well (culture medium containing cells, MTT, without Ang II); • Ab: Blank well (culture medium without cells, MTT, without Ang II).

H9C2 cardiomyocytes [4] = assay: Angiotensin II (Ang II)-induced cardiomyocyte hypertrophy model, crystal violet, cell surface area; format: cell-based, rat; settings: for surface area of a single cardiomyocyte, View 1 / surface area of a single cardiomyocyte, View 2 / surface area of a single cardiomyocyte, View 3 / surface area of a single cardiomyocyte, View 4 / surface area of a single cardiomyocyte, View 5 / Myocardial surface area: 40 μM Ang II 24 h; for surface area of a single cardiomyocyte, View 1: field of view 1; for surface area of a single cardiomyocyte, View 2: field of view 2; for surface area of a single cardiomyocyte, View 3: field of view 3; for surface area of a single cardiomyocyte, View 4: field of view 4; for surface area of a single cardiomyocyte, View 5: field of view 5; for Myocardial surface area: mean of 5 views
Experimental: Adjust the H9C2 cardiomyocytes in the logarithmic growth phase to a density of 1.2×10^5 cells/well and inoculate them into six-well plates. […] After culturing for 24 hours, the drug administration groups are added with 40 μM Ang II and the corresponding concentrations of drugs. The Ang II+diltiazem 10 μM group is added with 40 μM Ang II and 10 μM diltiazem. The Ang II model group is added with 40 μM Ang II and an equal volume of DMSO. The blank control group is added with an equal volume of DMSO. Then, continue culturing for 24 hours. Discard the culture medium, wash the cells 3 times with PBS. Add 1 mL of methanol to each well and fix the cells at −20° C. for 20 minutes, and then let them return to room temperature. After discarding the methanol, add 1 mL of 0.5% crystal violet staining solution to each well and stain for 10 minutes. Wash the cells with clean water and take pictures under an inverted microscope. Randomly select fields of view for photographing. Use Image J software to measure the sum of the surface areas of all cardiomyocytes in the field of view and count the number of cells in the field of view at the same time to obtain the surface area of each cardiomyocyte. The surface area of a single cardiomyocyte=the sum of the surface areas of all cardiomyocytes in the field of view/the number of cardiomyocytes in the field of view.

[5] = test system: mice with isoproterenol (ISO)-induced ischemic heart disease; assay: ISO-induced ischemic heart disease mouse model: serum ANP and NT-proBNP (ELISA); format: in vivo; settings: ISO 40 mg/kg s.c. 7 times
Experimental: as §1, §2
Detection of Myocardial Hypertrophy/Heart Failure Biomarkers: After the drug administration ended, the animals' eyes were enucleated to collect blood. The blood was left to stand at room temperature for 2 hours, and then centrifuged at 3500 rpm for 20 minutes to separate the serum. The contents of serum ANP and NT-proBNP were determined according to the instructions of the ELISA kit.

Rat H9C2 cardiomyocytes [6] = assay: cells; settings: H9c2, 24 h, read-out: Cell survival rate
Experimental: (§3) Rat H9C2 cardiomyocytes in the logarithmic growth phase were seeded into 96-well plates at a density of 7×10^4 cells/mL, with 100 μL per well. […] After 24 hours of culture, the drug groups were treated with 800 μM ISO and the corresponding concentrations of drugs. The ISO model group received 800 μM ISO and an equal volume of DMSO, and the blank control group received an equal volume of DMSO. The cells were then cultured for another 24 hours. After removing the supernatant, 100 μL MTT solution (0.5 mg/mL) was added to each well and incubated in the cell culture incubator for 4 hours. After removing the supernatant, 150 μL DMSO was added to each well, mixed by shaking for 10 minutes, and the absorbance was measured at 570 nm using a microplate reader to calculate cell viability. Cell viability (%)=[(As−Ab)/(Ac−Ab)]×100%. As: Experimental well (medium with cells, MTT, ISO); Ac: Control well (medium with cells, MTT, without ISO); Ab: Blank well (medium without cells, MTT, without ISO).

Rat H9C2 cardiomyocytes [7] = settings: 800 μM ISO 24 h, MTT 570 nm
Experimental: as §3

[8] = test system: mice with isoproterenol (ISO)-induced ischemic heart disease; assay: ISO-induced ischemic heart disease mouse model: serum CK-MB (ELISA); format: in vivo
Experimental: as §1, §2
Myocardial enzyme CK-MB detection: After the administration ended, blood was collected from the animals by enucleation. The blood was left to stand at room temperature for 2 hours, and then centrifuged at 3500 rpm for 20 minutes to separate the serum. The content of CK-MB in the serum was determined according to the instructions of the ELISA kit.

[9] = 0.1 mg/kg intragastric once a day 11 days
[10] = 0.5 mg/kg intragastric once a day 11 days
[11] = 2 mg/kg intragastric once a day 11 days

O=c1c(Cc2ccc3c(c2)OCO3)coc2cc(O)cc(O)c12 [Formula I]
Ca^2+ [1, 9]: 0.050 ± 0.008 mmol/gprot | Ca^2+ [1, 10]: 0.046 ± 0.010 mmol/gprot | Ca^2+ [1, 11]: 0.058 ± 0.009 mmol/gprot | viability at 0.1 µM (H9C2 cardiomyocytes [2]): 60.6% | viability at 0.3 µM (H9C2 cardiomyocytes [2]): 60.3% | viability at 1 µM (H9C2 cardiomyocytes [2]): 55.4% | viability at 3 µM (H9C2 cardiomyocytes [2]): 59.6% | viability at 5 µM (H9C2 cardiomyocytes [2]): 54.4% | viability at 10 µM (H9C2 cardiomyocytes [2]): 55.3% | OD (Rat H9C2 cardiomyocytes [3]; 0.1 μM): 0.809 ± 0.060 | OD (Rat H9C2 cardiomyocytes [3]; 0.3 μM): 0.780 ± 0.046 | OD (Rat H9C2 cardiomyocytes [3]; 1 μM): 0.791 ± 0.043 | OD (Rat H9C2 cardiomyocytes [3]; 3 μM): 0.816 ± 0.035 | OD (Rat H9C2 cardiomyocytes [3]; 10 μM): 0.823 ± 0.048 | number of cardiomyocytes (decrease in cell number caused by AngII) (H9C2 cardiomyocytes [4]; 0.1 μM, 0.5 μM and 1 μM, 40 μM AngII 24 h): significantly improve the decrease in cell number caused by AngII | surface area of a single cardiomyocyte, View 1 (H9C2 cardiomyocytes [4]; 0.1 μM): 362.68 μm^2 | surface area of a single cardiomyocyte, View 2 (H9C2 cardiomyocytes [4]; 0.1 μM): 351.69 μm^2 | surface area of a single cardiomyocyte, View 3 (H9C2 cardiomyocytes [4]; 0.1 μM): 344.78 μm^2 | surface area of a single cardiomyocyte, View 4 (H9C2 cardiomyocytes [4]; 0.1 μM): 338.55 μm^2 | surface area of a single cardiomyocyte, View 5 (H9C2 cardiomyocytes [4]; 0.1 μM): 410.64 μm^2 | Myocardial surface area (H9C2 cardiomyocytes [4]; 0.1 μM): 361.67 ± 25.76^### μm^2 | surface area of a single cardiomyocyte, View 1 (H9C2 cardiomyocytes [4]; 0.5 μM): 404.40 μm^2 | surface area of a single cardiomyocyte, View 2 (H9C2 cardiomyocytes [4]; 0.5 μM): 360.65 μm^2 | surface area of a single cardiomyocyte, View 3 (H9C2 cardiomyocytes [4]; 0.5 μM): 322.34 μm^2 | surface area of a single cardiomyocyte, View 4 (H9C2 cardiomyocytes [4]; 0.5 μM): 283.2 μm^2 | surface area of a single cardiomyocyte, View 5 (H9C2 cardiomyocytes [4]; 0.5 μM): 334.96 μm^2 | Myocardial surface area (H9C2 cardiomyocytes [4]; 0.5 μM): 341.11 ± 40.33^### μm^2 | surface area of a single cardiomyocyte, View 1 (H9C2 cardiomyocytes [4]; 1 μM): 312.97 μm^2 | surface area of a single cardiomyocyte, View 2 (H9C2 cardiomyocytes [4]; 1 μM): 300.38 μm^2 | surface area of a single cardiomyocyte, View 3 (H9C2 cardiomyocytes [4]; 1 μM): 328.43 μm^2 | surface area of a single cardiomyocyte, View 4 (H9C2 cardiomyocytes [4]; 1 μM): 331.13 μm^2 | surface area of a single cardiomyocyte, View 5 (H9C2 cardiomyocytes [4]; 1 μM): 303.72 μm^2 | Myocardial surface area (H9C2 cardiomyocytes [4]; 1 μM): 315.33 ± 12.53^### μm^2 | ANP [5, 9]: 301.02 ± 58.98 pg/mL | NT-proBNP [5, 9]: 39.35 ± 2.83 pg/mL | ANP [5, 10]: 295.85 ± 57.72 pg/mL | NT-proBNP [5, 10]: 43.52 ± 6.06 pg/mL | ANP [5, 11]: 289.01 ± 50.17 pg/mL | NT-proBNP [5, 11]: 40.47 ± 7.15 pg/mL | viability at 0.1 µM (Rat H9C2 cardiomyocytes [6]): 81.3% | viability at 0.3 µM (Rat H9C2 cardiomyocytes [6]): 76.8% | viability at 1 µM (Rat H9C2 cardiomyocytes [6]): 74% | viability at 3 µM (Rat H9C2 cardiomyocytes [6]): 76.6% | viability at 5 µM (Rat H9C2 cardiomyocytes [6]): 66.7% | viability at 10 µM (Rat H9C2 cardiomyocytes [6]): 69.4% | OD (Rat H9C2 cardiomyocytes [7]; 0.1 μM): 0.983 ± 0.144 | OD (Rat H9C2 cardiomyocytes [7]; 0.3 μM): 0.929 ± 0.105 | OD (Rat H9C2 cardiomyocytes [7]; 1 μM): 0.969 ± 0.065^###&& | OD (Rat H9C2 cardiomyocytes [7]; 3 μM): 0.926 ± 0.045 | OD (Rat H9C2 cardiomyocytes [7]; 5 μM): 0.807 ± 0.088 | OD (Rat H9C2 cardiomyocytes [7]; 10 μM): 0.839 ± 0.091^###& | CK-MB [8, 9]: 14.86 ± 2.90 ng/mL | CK-MB [8, 10]: 13.71 ± 2.75 ng/mL | CK-MB [8, 11]: 15.05 ± 2.49 ng/mL

— US20260285849A1, “METHYLOPHIOPOGONONE A DERIVATIVE, AND PREPARATION AND USE THEREOF” (INSTITUTE OF MATERIA MEDICA, CHINESE ACADEMY OF MEDICAL …, priority 2022, published 2026)
